What is called TGI is the concentration giving total growth inhibition. The low end stands for more potent growth arrest, the high end for less potent growth arrest.

The values that follow come from PubChem BioAssay (NCI).

Structures are written as SMILES.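 Cells were grown in 96-well plates and exposed to each compound for 48 hours at five concentrations; endpoints were interpolated linearly between bracketing concentrations, or set to the highest concentration if not reached. At the TGI there is no net growth.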 Bounds are passed on as bounds.

Some test systems named below: 786-0 renal; BT-549 breast; CCRF-CEM leukemia; DU-145 prostate; HS 578T breast; HT29 colon; K-562 leukemia; MALME-3M melanoma; MDA-MB-231 breast; MDA-N; OVCAR-3 ovarian; OVCAR-5 ovarian; OVCAR-8 ovarian; RXF 393 renal; SK-MEL-28 melanoma; SK-MEL-5 melanoma; SNB-19 CNS; SF-539 CNS; TK-10 renal; UO-31 renal.
Common to all, as to experiment: DTP human tumour cell line panel, 48 h

Regarding `C=CCc1cccc2cc(C(=O)Nc3ccc(C)cc3)c(=N)oc12`, the TGI in the assay with 786-0 renal, in the assay with BT-549 breast, in the assay on CCRF-CEM leukemia, in the assay on DU-145 prostate, in the assay on HS 578T breast and in the assay with HT29 colon was over 100 µM throughout. Further, the concentration for total growth inhibition (TGI) with K-562 leukemia, in the assay on MALME-3M melanoma, with MDA-MB-231 breast, in the assay with MDA-N, with OVCAR-3 ovarian and with OVCAR-5 ovarian was over 100 µM each time. For the same molecule, the TGI in the assay with OVCAR-8 ovarian, in the assay with RXF 393 renal, with SK-MEL-28 melanoma, in the assay on SK-MEL-5 melanoma and in the assay on SNB-19 CNS was over 100 µM in each case.
For the molecule `Cc1nn(C(=O)Cc2ccccc2)c2c1C(c1ccc([N+](=O)[O-])cc1)SC(N)=N2` (stereo not drawn), the total growth inhibition concentration (TGI) in the assay on 786-0 renal, with BT-549 breast, in the assay on CCRF-CEM leukemia, with DU-145 prostate, with HS 578T breast and with HT29 colon was over 100 µM in each case. The concentration for total growth inhibition (TGI) in the assay on K-562 leukemia, with MALME-3M melanoma, in the assay with MDA-MB-231 breast, in the assay with MDA-N, in the assay on OVCAR-8 ovarian and in the assay with SF-539 CNS was over 100 µM each time. Moreover, the TGI with SK-MEL-28 melanoma, in the assay on SK-MEL-5 melanoma and in the assay with TK-10 renal was over 100 µM each time.
`CN(/N=C/c1ccc(Cl)c(Cl)c1)C1=NCCCCN1`: the TGI was 47.8 µM with 786-0 renal; over 100 µM in the assay on BT-549 breast; 83.5 µM in the assay on CCRF-CEM leukemia; over 100 µM with DU-145 prostate; over 100 µM in the assay with HS 578T breast; over 100 µM in the assay on HT29 colon. Besides, the TGI in the assay with K-562 leukemia was 69.3 µM; in the assay on MALME-3M melanoma it was 32.5 µM; in the assay on MDA-MB-231 breast, over 100 µM; in the assay on MDA-N it was 42.2 µM; in the assay with OVCAR-3 ovarian, over 100 µM; in the assay on OVCAR-5 ovarian it was over 100 µM. Besides, the concentration for total growth inhibition (TGI) in the assay on OVCAR-8 ovarian is over 100 µM; with SF-539 CNS, 61.1 µM; with SK-MEL-5 melanoma it was 27.8 µM; in the assay with SNB-19 CNS, over 100 µM; in the assay on TK-10 renal, over 100 µM.
Consider `C1=CCC[C@@H]2CN3CCCC/C=C\CCCC[C@H]4C[C@H](CN(CCCCCCCC1)C4)[C@H]2CC3`, for which the concentration for total growth inhibition (TGI) in the assay with 786-0 renal is 15.9 µM; in the assay on BT-549 breast it was 29.8 µM; with CCRF-CEM leukemia, 34.9 µM; in the assay on DU-145 prostate, over 50 µM; with HS 578T breast, 20.2 µM; with HT29 colon, 20.8 µM. For the same molecule, the total growth inhibition concentration (TGI) came out at 24 µM in the assay on K-562 leukemia; 17.5 µM in the assay with MALME-3M melanoma; 16.4 µM in the assay on MDA-MB-231 breast; 16.2 µM in the assay on MDA-N; 15.2 µM in the assay with OVCAR-3 ovarian; 23.7 µM with OVCAR-5 ovarian. In addition, the TGI turned out to be 17.5 µM in the assay on OVCAR-8 ovarian; 14.9 µM with SF-539 CNS; 14.7 µM with SK-MEL-28 melanoma; 16.3 µM in the assay with SK-MEL-5 melanoma; 22.2 µM with SNB-19 CNS; 15.8 µM with TK-10 renal.
For the molecule `OCC(O)COCn1cc(Cn2ncc3c(NCc4ccccc4)ncnc32)nn1` (stereo not drawn), the total growth inhibition concentration (TGI) with 786-0 renal was over 100 µM; in the assay on BT-549 breast, over 100 µM; in the assay on CCRF-CEM leukemia, over 100 µM; in the assay with DU-145 prostate, over 100 µM; in the assay with HS 578T breast, 47.9 µM; in the assay with HT29 colon it was over 100 µM. In addition, the TGI in the assay on MDA-MB-231 breast, with MDA-N, with OVCAR-3 ovarian, in the assay on OVCAR-5 ovarian, in the assay on OVCAR-8 ovarian and in the assay on SF-539 CNS was over 100 µM in each case. Besides, the concentration for total growth inhibition (TGI) with SK-MEL-28 melanoma, in the assay on SK-MEL-5 melanoma, with SNB-19 CNS, in the assay with TK-10 renal and in the assay on UO-31 renal was over 100 µM in each case.
Regarding `CCOc1ccccc1Nc1ccc(N)cc1S(=O)(=O)O`, the TGI in the assay with 786-0 renal, in the assay on BT-549 breast, with DU-145 prostate, in the assay with HS 578T breast, in the assay on HT29 colon and in the assay on K-562 leukemia was over 100 µM throughout. The TGI in the assay with MALME-3M melanoma, in the assay with MDA-MB-231 breast, in the assay with MDA-N, in the assay on OVCAR-3 ovarian, in the assay on OVCAR-5 ovarian and in the assay with RXF 393 renal was over 100 µM throughout. For the same molecule, the concentration for total growth inhibition (TGI) in the assay with SK-MEL-28 melanoma, with SK-MEL-5 melanoma, with SNB-19 CNS, in the assay with TK-10 renal and with UO-31 renal was over 100 µM each time.
Take `CC(=O)Nn1cnc(C(=N)C#N)c1N`: the TGI with 786-0 renal, in the assay on BT-549 breast, in the assay on CCRF-CEM leukemia, in the assay on DU-145 prostate, in the assay with HS 578T breast and in the assay on HT29 colon was over 100 µM throughout. For the same molecule, the TGI in the assay on K-562 leukemia, in the assay with MALME-3M melanoma, in the assay on MDA-MB-231 breast, in the assay with MDA-N, with OVCAR-3 ovarian and in the assay on OVCAR-5 ovarian was over 100 µM each time. For the same molecule, the TGI in the assay with OVCAR-8 ovarian, in the assay with SF-539 CNS, in the assay with SK-MEL-28 melanoma, in the assay on SK-MEL-5 melanoma, with SNB-19 CNS and with TK-10 renal was over 100 µM each time. The molecule also yielded a TGI in the assay on UO-31 renal of over 100 µM.
As for `O=C1/C(=C/C=C/c2ccccc2)N=C(c2ccccc2)N1c1ccc(S(=O)(=O)Nc2nccs2)cc1`, the concentration for total growth inhibition (TGI) in the assay on 786-0 renal is over 100 µM; in the assay with BT-549 breast it was 61.4 µM; with CCRF-CEM leukemia it was over 100 µM; with DU-145 prostate, over 100 µM; in the assay with HS 578T breast, over 100 µM; with HT29 colon, 49.8 µM. Also, the TGI in the assay with K-562 leukemia is over 100 µM; in the assay with MALME-3M melanoma, over 100 µM; with MDA-N, over 100 µM; with OVCAR-3 ovarian, 48.2 µM; in the assay with OVCAR-5 ovarian, over 100 µM; in the assay with OVCAR-8 ovarian, over 100 µM. For the same molecule, the total growth inhibition concentration (TGI) with RXF 393 renal is 30.1 µM; in the assay with SF-539 CNS, 45.9 µM; with SK-MEL-5 melanoma, 54 µM; with SNB-19 CNS, over 100 µM; in the assay with TK-10 renal, over 100 µM; in the assay on UO-31 renal, 29.9 µM.
